From PubChem BioAssay AID248 (DTP/NCI, 2004)
Several values for one entry are separate records, joined by “and”; a condition that tells them apart may be missing. Identical values can stand only once. Toxic doses and inconclusive results are not listed. Cut-off read from the data, not from the text of the source: active = T/C of 150% or more; inactive = T/C below 125%.

Test system: L1210 leukemia ip in BDF1 mice, survival T/C
Assay: NCI In Vivo Anticancer Drug Screen. Data for tumor model L1210 Leukemia (intraperitoneal) in B6D2F1 (BDF1) mice
Settings: endpoint: mean survival time, higher = longer survival
How it was run: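 Transplantable tumor model; survival measured in treated vs vehicle control mice. Value = treated/control.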

[1] = dose: 100.0 mg/kg/injection, schedule: Q01DX001 (ip), vehicle: saline
[2] = dose: 200.0 mg/kg/injection, schedule: Q01DX001 (ip), vehicle: saline
[3] = dose: 400.0 mg/kg/injection, schedule: Q01DX001 (ip), vehicle: saline
[4] = dose: 100.0 mg/kg/injection, schedule: Q01DX009 (ip), vehicle: saline with Tween-80
[5] = dose: 100.0 mg/kg/injection, schedule: Q01DX009 (ip), vehicle: Klucel (hydroxypropylcellulose) (HPC)
[6] = dose: 100.0 mg/kg/injection, schedule: Q04DX003 (ip), vehicle: Klucel (hydroxypropylcellulose) (HPC)
[7] = dose: 200.0 mg/kg/injection, schedule: Q01DX009 (ip), vehicle: Klucel (hydroxypropylcellulose) (HPC)
[8] = dose: 200.0 mg/kg/injection, schedule: Q04DX003 (ip), vehicle: Klucel (hydroxypropylcellulose) (HPC)
[9] = dose: 400.0 mg/kg/injection, schedule: Q01DX009 (ip), vehicle: Klucel (hydroxypropylcellulose) (HPC)
[10] = dose: 400.0 mg/kg/injection, schedule: Q04DX003 (ip), vehicle: Klucel (hydroxypropylcellulose) (HPC)
[11] = dose: 100.0 mg/kg/injection, schedule: Q04DX003 (ip), vehicle: saline with Tween-80

Measured: T/C

CCN(CC)CCSC(=S)N1c2ccccc2Sc2ccccc21
inactive: dose: 17.5 mg/kg/injection, schedule: Q01DX009 (ip), vehicle: saline 90 % of control | dose: 17.5 mg/kg/injection, schedule: Q04DX003 (ip), vehicle: Klucel (hydroxypropylcellulose) (HPC) 102 % of control | dose: 35.0 mg/kg/injection, schedule: Q01DX009 (ip), vehicle: saline 96 % of control | dose: 35.0 mg/kg/injection, schedule: Q04DX003 (ip), vehicle: Klucel (hydroxypropylcellulose) (HPC) 93 % of control | dose: 70.0 mg/kg/injection, schedule: Q01DX009 (ip), vehicle: saline 87 % of control | dose: 70.0 mg/kg/injection, schedule: Q04DX003 (ip), vehicle: Klucel (hydroxypropylcellulose) (HPC) 96 % of control | dose: 140.0 mg/kg/injection, schedule: Q01DX009 (ip), vehicle: saline 91 % of control | dose: 140.0 mg/kg/injection, schedule: Q04DX003 (ip), vehicle: Klucel (hydroxypropylcellulose) (HPC) 98 % of control | dose: 280.0 mg/kg/injection, schedule: Q04DX003 (ip), vehicle: Klucel (hydroxypropylcellulose) (HPC) 95 % of control

C[N+](C)(CCNCc1ccccc1)Cc1ccccc1
inactive: [1] 102 % of control | [2] 100 % of control | [3] 100 % of control

CN=C(NC)c1ccc(NC(=O)c2ccc(C(=O)Nc3ccc(C(=NC)NC)c(C)c3)cc2)cc1C
inactive: dose: 4.4 mg/kg/injection, schedule: Q01DX Z (ip), vehicle: carboxymethylcellulose (CMC) 98 % of control | dose: 6.6 mg/kg/injection, schedule: Q01DX Z (ip), vehicle: carboxymethylcellulose (CMC) 102 % of control | dose: 10.0 mg/kg/injection, schedule: Q01DX Z (ip), vehicle: carboxymethylcellulose (CMC) 100 % of control | dose: 15.0 mg/kg/injection, schedule: Q01DX Z (ip), vehicle: carboxymethylcellulose (CMC) 107 % of control and 108 % of control and 112 % of control | dose: 22.5 mg/kg/injection, schedule: Q01DX Z (ip), vehicle: carboxymethylcellulose (CMC) 111 % of control | dose: 30.0 mg/kg/injection, schedule: Q01DX Z (ip), vehicle: carboxymethylcellulose (CMC) 96 % of control | dose: 35.0 mg/kg/injection, schedule: Q01DX Z (ip), vehicle: carboxymethylcellulose (CMC) 100 % of control

CS(=O)(=O)O/C=C1/CCOC1=O
inactive: dose: 12.5 mg/kg/injection, schedule: Q01DX009 (ip), vehicle: water 105 % of control | dose: 25.0 mg/kg/injection, schedule: Q01DX009 (ip), vehicle: water 106 % of control

N#CC1C(=O)NC(=O)C(C#N)C12CCCCC2 (stereo unspecified)
inactive: [1] 106 % of control | [4] 101 % of control | [2] 106 % of control | dose: 200.0 mg/kg/injection, schedule: Q01DX009 (ip), vehicle: saline with Tween-80 97 % of control

CCOc1cc(C2=NNc3n[nH]c(=S)n3N2)ccc1O
inactive: [5] 94 % of control | [6] 96 % of control | [7] 98 % of control | [8] 103 % of control | [9] 97 % of control | [10] 102 % of control

CC(=O)CC(=O)Nc1ccc(Cl)cc1Cl
inactive: [5] 100 % of control | [6] 98 % of control | [7] 102 % of control | [8] 91 % of control | [9] 98 % of control | [10] 93 % of control

Nc1ccccc1SC1CC(=O)N(c2cccc(Cl)c2)C1=O (stereo unspecified)
inactive: [5] 91 % of control | [6] 94 % of control | [7] 92 % of control | [8] 95 % of control | [9] 91 % of control | [10] 94 % of control

S=P(Nc1ccccc1)(Nc1ccccc1)Oc1cc(Cl)c(Cl)cc1Cl
inactive: [1] 92 % of control | [2] 93 % of control | [3] 92 % of control

CCOC(=O)C1C(=O)NCC1c1ccccc1 (stereo unspecified)
inactive: dose: 50.0 mg/kg/injection, schedule: Q01DX009 (ip), vehicle: saline 94 % of control and 97 % of control | dose: 100.0 mg/kg/injection, schedule: Q01DX009 (ip), vehicle: saline 104 % of control | dose: 200.0 mg/kg/injection, schedule: Q01DX009 (ip), vehicle: saline 108 % of control and 91 % of control

N#C/C(=C\c1ccc([N+](=O)[O-])o1)[N+](=O)[O-]
inactive: dose: 25.0 mg/kg/injection, schedule: Q01DX009 (ip), vehicle: saline with Tween-80 110 % of control | dose: 50.0 mg/kg/injection, schedule: Q01DX009 (ip), vehicle: saline with Tween-80 96 % of control | [4] 104 % of control | [11] 106 % of control

C[N+]1(C)CC2C3C=CC(C3)C2C1 (stereo unspecified)
inactive: [6] 102 % of control | [8] 96 % of control

CC(C)CC(=O)OC1CCCCC1
inactive: [11] 106 % of control | dose: 200.0 mg/kg/injection, schedule: Q04DX003 (ip), vehicle: saline with Tween-80 101 % of control | dose: 400.0 mg/kg/injection, schedule: Q04DX003 (ip), vehicle: saline with Tween-80 95 % of control

CCOC(=O)CC(=O)Cc1cccc([N+](=O)[O-])c1
inactive: [5] 91 % of control | [6] 100 % of control | [7] 88 % of control | [8] 107 % of control | [10] 107 % of control

Cc1ncn(C)n1
inactive: dose: 100.0 mg/kg/injection, schedule: Q04DX002 (ip), vehicle: saline 94 % of control | dose: 200.0 mg/kg/injection, schedule: Q04DX002 (ip), vehicle: saline 112 % of control | dose: 400.0 mg/kg/injection, schedule: Q04DX002 (ip), vehicle: saline 98 % of control
